Assay results reported in patent publication US11932601B2, “Immunoregulatory agents” (FLEXUS BIOSCIENCES, INC., priority 2014, dated 2024).

These molecules were tested against T1, human IDO1 (Homo sapiens, UniProt P14902) (assay: HEK293 cells stably expressing human IDO1, IDO inhibition assay (kynurenine, Ehrlich reagent, absorbance 490 nm)). Conditions: 20 hours incubation, 500 nM reference standard = 100% inhibition, read-out: HEK Human IDO-1 Biological Activity (IC50).
T1 construct: expressed in transfected cells
Assay type: cell-based
Experimental: HEK293 cells were transfected with a pCDNA-based mammalian expression vector harboring human IDO1 cDNA (NM 002164.2) by electroporation. They were cultured in medium (DMEM with 10% FBS) containing 1 mg/ml G418 for two weeks. Clones of HEK293 cells that stably expressed human IDO1 protein were selected and expanded for IDO inhibition assay.
The human IDO1/HEK293 cells were seeded at 10,000 cells per 50 μL per well with RPMI/phenol red free media contains 10% FBS in a 384-well black wall clear bottom tissue culture plate (Matrix Technologies LLC) 100 nL of certain concentration of compound was then added to each well using ECHO liquid handling systems. The cells were incubated for 20 hours in 37° C. incubator with 5% CO2.
The compound treatments were stopped by adding Trichloroacetic Acid (Sigma-Aldrich) to a final concentration at 0.2%. The cell plate was further incubated at 50° C. for 30 minute. The equal volume supernatant […] and 0.2% (w/v) Ehrlich reagent (4-dimethylaminobenzaldehyde, Sigma-Aldrich) in glacial acetic acid were mixed in a new clear bottom 384-well plate. This plate was then incubated at room temperature for 30 minute. The absorbance at 490 nm was measured on Envision plate reader.

T1 sequence (P14902 whole entry): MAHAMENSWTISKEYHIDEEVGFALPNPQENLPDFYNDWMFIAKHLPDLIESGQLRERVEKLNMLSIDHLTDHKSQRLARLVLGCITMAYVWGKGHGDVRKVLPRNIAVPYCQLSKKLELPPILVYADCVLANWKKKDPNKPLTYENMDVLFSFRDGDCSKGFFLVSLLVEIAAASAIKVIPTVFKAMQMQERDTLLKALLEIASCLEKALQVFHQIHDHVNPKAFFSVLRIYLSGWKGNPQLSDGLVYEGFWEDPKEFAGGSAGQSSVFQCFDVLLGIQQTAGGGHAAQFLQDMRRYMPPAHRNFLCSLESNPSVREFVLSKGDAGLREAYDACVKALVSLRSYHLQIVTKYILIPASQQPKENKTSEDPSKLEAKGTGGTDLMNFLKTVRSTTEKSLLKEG

SMILES | IC50
CCC(C(=O)Nc1ccc(Cl)cc1)[C@H]1CC[C@H](Oc2ccncc2C(F)(F)F)CC1 (mixture of isomers) [Example 305, N-(4-Chlorophenyl)-2-(trans-4-((3-(trifluoromethyl)pyridin-4-yl)oxy)cyclohexyl)butanamide] | > 250 nM
CCC(C(=O)Nc1ccc(Cl)cc1)[C@H]1CC[C@@H](Oc2ccncc2)CC1 (mixture of isomers) [Example 306, N-(4-Chlorophenyl)-2-(cis-4-(pyridin-4-yloxy)cyclohexyl)butanamide] | < 50 nM
CCC(C(=O)Nc1ccc(Cl)cc1)[C@H]1CC[C@H](Oc2ccncc2C(F)(F)F)CC1 (single isomer, unassigned) [Example 305b, N-(4-Chlorophenyl)-2-((1r,4r)-4-((3-(trifluoromethyl)pyridin-4-yl)oxy)cyclohexyl)-2λ^3-butanamide] | < 50 nM
COc1cc([C@H]2CC[C@@H]([C@H](C)C(=O)Nc3ccc(Cl)cc3)CC2)ccn1 (single isomer, unassigned) [Example 307f, N-(4-Chlorophenyl)-2-(4-(2-methoxypyridin-4-yl)cyclohexyl)propanamide] | < 50 nM
Cc1cc(C2CCC(C(C)C(=O)Nc3ccc(Cl)cc3)CC2)cc(C)n1 (single isomer, unassigned) [Example 308a, N-(4-chlorophenyl)-2-(4-(2,6-dimethylpyridin-4-yl)cyclohexyl) propanamide] | < 250 nM
Cc1cc(C2CCC(C(C)C(=O)Nc3ccc(Cl)cc3)CC2)cc(C)n1 (single isomer, unassigned) [Example 308c, N-(4-chlorophenyl)-2-(4-(2,6-dimethylpyridin-4-yl)cyclohexyl) propanamide] | > 250 nM
Cc1cc(C2CCC(C(C)C(=O)Nc3ccc(Cl)cc3)CC2)ccn1 (single isomer, unassigned) [Example 309b, N-(4-chlorophenyl)-2-(4-(2-methylpyridin-4-yl)cyclohexyl) propanamide] | < 50 nM
Cc1c(C2CCC(C(C)C(=O)Nc3ccc(Cl)cc3)CC2)ccnc1F (single isomer, unassigned) [Example 310b, (+/-)N-(4-chlorophenyl)-2-(4-(2-fluoro-3-methylpyridin-4-yl)cyclohexyl) propanamide] | < 50 nM
Cc1c(C2CCC(C(C)C(=O)Nc3ccc(Cl)cc3)CC2)ccnc1F (single isomer, unassigned) [Example 310c, N-(4-chlorophenyl)-2-(4-(2-fluoro-3-methylpyridin-4-yl)cyclohexyl) propanamide] | < 50 nM
Cc1c(C2CCC(C(C)C(=O)Nc3ccc(Cl)cc3)CC2)ccnc1F (single isomer, unassigned) [Example 310f, N-(4-chlorophenyl)-2-(4-(2-fluoro-3-methylpyridin-4-yl)cyclohexyl) propanamide] | < 250 nM
Cc1nccc(C2CCC(C(C)C(=O)Nc3ccc(Cl)cc3)CC2)c1C (single isomer, unassigned) [Example 311a, N-(4-chlorophenyl)-2-(4-(2,3-dimethylpyridin-4-yl)cyclohexyl) propanamide] | < 50 nM
Cc1nccc(C2CCC(C(C)C(=O)Nc3ccc(Cl)cc3)CC2)c1C (single isomer, unassigned) [Example 311b, N-(4-chlorophenyl)-2-(4-(2,3-dimethylpyridin-4-yl)cyclohexyl) propanamide] | < 50 nM
Cc1nccc(C2CCC(C(C)C(=O)Nc3ccc(Cl)cc3)CC2)c1C (single isomer, unassigned) [Example 311c, N-(4-chlorophenyl)-2-(4-(2,3-dimethylpyridin-4-yl)cyclohexyl) propanamide] | > 250 nM
CC(C(=O)Nc1ccc(Cl)cc1)C1CCC(c2ccnc(C(F)(F)F)c2)CC1 (single isomer, unassigned) [Example 312b, N-(4-chlorophenyl)-2-(4-(2-(trifluoromethyl)pyridin-4-yl)cyclohexyl) propanamide] | < 50 nM
CC(C(=O)Nc1ccc(Cl)cc1)C1CCC(c2ccnc(C(F)(F)F)c2)CC1 (single isomer, unassigned) [Example 312d, N-(4-chlorophenyl)-2-(4-(2-(trifluoromethyl)pyridin-4-yl)cyclohexyl) propanamide] | < 250 nM

Second part, the molecule after the results:

IC50 | SMILES
< 50 nM | CC(C(=O)Nc1ccc(Cl)cc1)[C@H]1CC[C@H](Oc2ccnc(C(F)(F)F)c2)CC1 (mixture of isomers) [Example 323, (+/−)-N-(4-chlorophenyl)-2-(trans-4-((2-(trifluoromethyl)pyridin-4-yl)oxy)cyclohexyl) propanamide]
> 250 nM | CCC(C(=O)Nc1ccc(Cl)cc1)[C@H]1CC[C@H](Oc2ccncc2C(F)(F)F)CC1 (single isomer, unassigned) [Example 305a, N-(4-Chlorophenyl)-2-((1r,4r)-4-((3-(trifluoromethyl)pyridin-4-yl)oxy)cyclohexyl)-2λ^3-butanamide]
< 50 nM | CCC(C(=O)Nc1ccc(Cl)cc1)[C@H]1CC[C@@H](Oc2ccncc2)CC1 (single isomer, unassigned) [Example 306a, N-(4-Chlorophenyl)-2-(cis-4-(pyridin-4-yloxy)cyclohexyl)butanamide]
> 250 nM | CCC(C(=O)Nc1ccc(Cl)cc1)[C@H]1CC[C@@H](Oc2ccncc2)CC1 (single isomer, unassigned) [Example 306b, N-(4-Chlorophenyl)-2-(cis-4-(pyridin-4-yloxy)cyclohexyl)butanamide]
< 50 nM | COc1cc([C@H]2CC[C@@H]([C@H](C)C(=O)Nc3ccc(Cl)cc3)CC2)ccn1 (single isomer, unassigned) [Example 307c, N-(4-Chlorophenyl)-2-(4-(2-methoxypyridin-4-yl)cyclohexyl)propanamide]
< 50 nM | COc1cc([C@H]2CC[C@@H]([C@H](C)C(=O)Nc3ccc(Cl)cc3)CC2)ccn1 (single isomer, unassigned) [Example 307d, N-(4-Chlorophenyl)-2-(4-(2-methoxypyridin-4-yl)cyclohexyl)propanamide]
< 250 nM | COc1cc([C@H]2CC[C@@H]([C@H](C)C(=O)Nc3ccc(Cl)cc3)CC2)ccn1 (single isomer, unassigned) [Example 307e, N-(4-Chlorophenyl)-2-(4-(2-methoxypyridin-4-yl)cyclohexyl)propanamide]
< 50 nM | Cc1cc(C2CCC(C(C)C(=O)Nc3ccc(Cl)cc3)CC2)cc(C)n1 (single isomer, unassigned) [Example 308b, N-(4-chlorophenyl)-2-(4-(2,6-dimethylpyridin-4-yl)cyclohexyl) propanamide]
> 250 nM | Cc1cc(C2CCC(C(C)C(=O)Nc3ccc(Cl)cc3)CC2)ccn1 (single isomer, unassigned) [Example 309a, N-(4-chlorophenyl)-2-(4-(2-methylpyridin-4-yl)cyclohexyl) propanamide]
> 250 nM | Cc1cc(C2CCC(C(C)C(=O)Nc3ccc(Cl)cc3)CC2)ccn1 (single isomer, unassigned) [Example 309c, N-(4-chlorophenyl)-2-(4-(2-methylpyridin-4-yl)cyclohexyl) propanamide]
< 50 nM | Cc1cc(C2CCC(C(C)C(=O)Nc3ccc(Cl)cc3)CC2)ccn1 (single isomer, unassigned) [Example 309d, N-(4-chlorophenyl)-2-(4-(2-methylpyridin-4-yl)cyclohexyl) propanamide]
< 50 nM | Cc1c(C2CCC(C(C)C(=O)Nc3ccc(Cl)cc3)CC2)ccnc1F (single isomer, unassigned) [Example 310a, (+/−)N-(4-chlorophenyl)-2-(4-(2-fluoro-3-methylpyridin-4-yl)cyclohexyl) propanamide]
< 50 nM | Cc1c(C2CCC(C(C)C(=O)Nc3ccc(Cl)cc3)CC2)ccnc1F (single isomer, unassigned) [Example 310d, N-(4-chlorophenyl)-2-(4-(2-fluoro-3-methylpyridin-4-yl)cyclohexyl) propanamide]
< 50 nM | Cc1c(C2CCC(C(C)C(=O)Nc3ccc(Cl)cc3)CC2)ccnc1F (single isomer, unassigned) [Example 310e, N-(4-chlorophenyl)-2-(4-(2-fluoro-3-methylpyridin-4-yl)cyclohexyl) propanamide]
< 50 nM | Cc1nccc(C2CCC(C(C)C(=O)Nc3ccc(Cl)cc3)CC2)c1C (single isomer, unassigned) [Example 311d, N-(4-chlorophenyl)-2-(4-(2,3-dimethylpyridin-4-yl)cyclohexyl) propanamide]
< 250 nM | Cc1nccc(C2CCC(C(C)C(=O)Nc3ccc(Cl)cc3)CC2)c1C (single isomer, unassigned) [Example 311f, N-(4-chlorophenyl)-2-(4-(2,3-dimethylpyridin-4-yl)cyclohexyl) propanamide]
< 250 nM | CC(C(=O)Nc1ccc(Cl)cc1)C1CCC(c2ccnc(C(F)(F)F)c2)CC1 (single isomer, unassigned) [Example 312a, N-(4-chlorophenyl)-2-(4-(2-(trifluoromethyl)pyridin-4-yl)cyclohexyl) propanamide]
< 50 nM | CC(C(=O)Nc1ccc(Cl)cc1)C1CCC(c2ccnc(C(F)(F)F)c2)CC1 (single isomer, unassigned) [Example 312c, N-(4-chlorophenyl)-2-(4-(2-(trifluoromethyl)pyridin-4-yl)cyclohexyl) propanamide]
